≈ marks a conversion by molar mass, not a printed value. Like-named read-outs stand apart in the source and are kept apart here. Numbered stars: 1 amine (or outer) side, 2 acyl side, 3 side chain; on linkers, the order of the positions; unused ones are H or OH. Bridge positions count the residues as written; N and C are the ends. Square brackets hold non-standard residues; d marks the D form. Peptide text beside a SMILES is read from it. * marks the point of attachment. Lys(Me,(CH2)4NMe(CH2)5CO) = CN(CCCCCC(=O)[*:3])CCCCN(C)CCCC[C@H](N[*:1])C(=O)[*:2]; X2 = O=C(Cc1ccc(-c2ccc(CC(=O)[*:2])cc2)cc1)[*:1]; Trp(7-Me) = Cc1cccc2c(C[C@H](N)C(=O)O)c[nH]c12; Sebacoyl = O=C(CCCCCCCCC(=O)[*:2])[*:1]; NH(CH2)9CO = O=C(CCCCCCCCCN[*:1])[*:2]; 2Nal = N[C@@H](Cc1ccc2ccccc2c1)C(=O)O; Suberoyl = O=C(CCCCCCC(=O)[*:2])[*:1]; d2Nal = N[C@H](Cc1ccc2ccccc2c1)C(=O)O; C12 diacid = O=C(O)CCCCCCCCCCC(=O)*; X1 = O=C(CCCCCCCCCCCCCN[*:1])[*:2]; 3Pal = N[C@@H](Cc1cccnc1)C(=O)O; 12Ado = NCCCCCCCCCCCC(=O)O; AEEEA = NCCOCCOCCOCC(=O)O; Aun = NCCCCCCCCCCC(=O)O; Thp = NC1(C(=O)O)CCOCC1; Me2NCH2CH2 = CN(C)CC*; Aib = CC(C)(N)C(=O)O; Aoc = NCCCCCCCC(=O)O; Sar = CNCC(=O)O
Assays:
[1] = Solubility of peptide compounds in buffer formulations (Table 5); format: physicochemical; details: target 1 mg/ml
Summary of the method: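 Solubility was quantified by UHPLC-UV, comparing 1:10-diluted filtrate peak areas with a DMSO reference standard and correcting for extinction coefficients. Samples were prepared from dried DMSO stock at 1 mg/mL nominal in pH 1.2 HCl, pH 6.5 or pH 7.4 phosphate (50 mM), and agitated 2 h.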

[2] = molecular target: T1, human IL-23R (Homo sapiens, UniProt Q5VWK5); test: Inhibition of IL-23 binding to IL-23R as measured by ELISA (Table 8); details: human IL23 coated 1 μg/ml; human IL-23R-Fc 0.1 μg/ml; 60 min; read-out: Human ELISA IL23/IL23R IC50
T1 sequence (Q5VWK5 24-353 limits assumed): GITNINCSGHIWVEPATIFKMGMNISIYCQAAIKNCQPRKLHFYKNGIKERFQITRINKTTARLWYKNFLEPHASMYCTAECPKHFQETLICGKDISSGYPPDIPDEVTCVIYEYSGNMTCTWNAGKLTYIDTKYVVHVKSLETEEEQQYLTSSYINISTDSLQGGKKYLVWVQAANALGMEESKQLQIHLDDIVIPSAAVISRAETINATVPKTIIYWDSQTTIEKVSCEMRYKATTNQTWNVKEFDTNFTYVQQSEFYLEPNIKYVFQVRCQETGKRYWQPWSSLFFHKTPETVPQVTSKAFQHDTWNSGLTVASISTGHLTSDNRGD
Protocol: Antagonism of compounds for human interleukin-23 receptor inhibitors, was determined by an ELISA assay.
A 384-well plate was coated with 50 μl/well of human IL23 at a final concentration of 1 μg/ml and incubated overnight at 4° C. The wells were washed 3 times with 80 μl wash buffer and blocked with 80 μl blocking buffer for 60 minutes at room temperature and washed again. 20 μl of serially diluted test peptides was added to each well and subsequently 20 μl of recombinant human IL-23R-Fc chimera at final concentration of 0.1 μg/ml. The plate was incubated for 60 minutes at room temperature. After the wells were washed, bound IL23R-Fc was detected with goat anti-hu-IgG1-HRP antibody. Signals were visualized with QUANTABLU fluorogenic peroxidase substrate.

[3] = Buffer pH 1.1 (head; method: 50 mM HCl pH 1.2), 2 h agitation, read-out: Solubility, Buffer pH 1.1
[4] = aqueous buffer, 50 mM phosphate buffer pH 6.5, 2 h agitation, read-out: Solubility, Buffer pH 6.5
[5] = aqueous buffer, 50 mM phosphate buffer pH 7.4, 2 h agitation, read-out: Solubility, Buffer pH 7.4

| SMILES | solubility at 2 h [1, 3] [µg/mL] | solubility at 2 h [1, 4] [µg/mL] | solubility at 2 h [1, 5] [µg/mL] | IC50 [2] [nM] |
| --- | --- | --- | --- | --- |
| Cc1cccc2c(C[C@@H]3NC(=O)CCCCCCCCCNC(=O)CC[C@@H](C(=O)N[C@@H](CC(N)=O)C(=O)N[C@@H](Cc4cccnc4)C(=O)N(C)CC(N)=O)NC(=O)C(C)(C)NC(=O)[C@H](Cc4ccc5ccccc5c4)NC(=O)[C@H](Cc4ccc(OCCN(C)C)cc4)NC(=O)C4(CCOCC4)NC(=O)[C@H](CC(C)C)NC3=O)c[nH]c12 [compound 8] ([NH(CH2)9CO][Trp(7-Me)]L[Thp]Y(Me2NCH2CH2)[2Nal][Aib]EN[3Pal][Sar]-NH2; lactam N-8) | 20 (≈ 12.6 µM) | < 10 | < 10 | 1.69 |
| Cc1cccc2c(C[C@@H]3NC(=O)CCCCCCC(=O)NCCCC[C@@H](C(=O)N[C@@H](CC(N)=O)C(=O)N[C@@H](Cc4cccnc4)C(=O)N(C)CC(N)=O)NC(=O)C(C)(C)NC(=O)[C@H](Cc4ccc5ccccc5c4)NC(=O)[C@H](Cc4ccc(OCCN(C)C)cc4)NC(=O)C4(CCOCC4)NC(=O)[C@H](CCC(N)=O)NC3=O)c[nH]c12 [compound 12] ([Trp(7-Me)]Q[Thp]Y(Me2NCH2CH2)[2Nal][Aib]KN[3Pal][Sar]-NH2; linker N-7 via Suberoyl) | ≥ 1050 | ≥ 1100 | ≥ 1150 | 0.61 |
| Cc1cccc2c(C[C@@H]3NC(=O)CCCCCCCCC(=O)NCCCC[C@@H](C(=O)N[C@@H](CC(N)=O)C(=O)N[C@@H](Cc4cccnc4)C(=O)N(C)CC(N)=O)NC(=O)C(C)(C)NC(=O)[C@H](Cc4ccc5ccccc5c4)NC(=O)[C@H](Cc4ccc(OCCN(C)C)cc4)NC(=O)C4(CCOCC4)NC(=O)[C@H](CCC(N)=O)NC3=O)c[nH]c12 [compound 11] ([Trp(7-Me)]Q[Thp]Y(Me2NCH2CH2)[2Nal][Aib]KN[3Pal][Sar]-NH2; linker N-7 via Sebacoyl) | ≥ 940 | 330 (≈ 204 µM) | 500 (≈ 309 µM) | 0.62 |
| Cc1cccc2c(C[C@@H]3NC(=O)CCCCCCCCCCNC(=O)CC[C@@H](C(=O)N[C@@H](CC(N)=O)C(=O)N[C@@H](Cc4cccnc4)C(=O)N(C)CC(N)=O)NC(=O)C(C)(C)NC(=O)[C@@H](Cc4ccc5ccccc5c4)NC(=O)[C@H](Cc4ccc(OCCN(C)C)cc4)NC(=O)C4(CCOCC4)NC(=O)[C@H](CCC(N)=O)NC3=O)c[nH]c12 [compound 4] ([Aun][Trp(7-Me)]Q[Thp]Y(Me2NCH2CH2)[d2Nal][Aib]EN[3Pal][Sar]-NH2; lactam N-8) | ≥ 970 | 270 (≈ 167 µM) | 60 (≈ 37.1 µM) | 0.62 |
| CC(=O)NCCCC[C@@H]1NC(=O)[C@H](Cc2c[nH]c3c(C)cccc23)NC(=O)[C@@H](NC(C)=O)CCCCN(C)CCCCN(C)CCCC[C@@H](C(=O)N[C@@H](CC(N)=O)C(=O)N[C@@H](Cc2cccnc2)C(=O)N(C)CC(N)=O)NC(=O)C(C)(C)NC(=O)[C@@H](Cc2ccc3ccccc3c2)NC(=O)[C@H](Cc2ccc(OCCN(C)C)cc2)NC(=O)C2(CCOCC2)NC1=O [compound 13] | ≥ 1190 | ≥ 1180 | ≥ 1230 | 0.41 |
| Cc1cccc2c(C[C@@H]3NC(=O)CCCCCCCCCCNC(=O)CC[C@@H](C(=O)N[C@@H](CC(N)=O)C(=O)N[C@@H](Cc4cccnc4)C(=O)N(C)CC(N)=O)NC(=O)C(C)(C)NC(=O)[C@H](Cc4ccc5ccccc5c4)NC(=O)[C@H](Cc4ccc(OCCN(C)C)cc4)NC(=O)C4(CCOCC4)NC(=O)[C@H](CC(C)C)NC3=O)c[nH]c12 [compound 7] ([Aun][Trp(7-Me)]L[Thp]Y(Me2NCH2CH2)[2Nal][Aib]EN[3Pal][Sar]-NH2; lactam N-8) | 20 (≈ 12.5 µM) | < 10 | < 10 | 2.41 |
| Cc1cccc2c(C[C@@H]3NC(=O)CCCCCCCCCCCNC(=O)CC[C@@H](C(=O)N[C@@H](CC(N)=O)C(=O)N[C@@H](Cc4cccnc4)C(=O)N(C)CC(N)=O)NC(=O)C(C)(C)NC(=O)[C@H](Cc4ccc5ccccc5c4)NC(=O)[C@H](Cc4ccc(OCCN(C)C)cc4)NC(=O)C4(CCOCC4)NC(=O)[C@H](CCC(N)=O)NC3=O)c[nH]c12 [compound 2] ([12Ado][Trp(7-Me)]Q[Thp]Y(Me2NCH2CH2)[2Nal][Aib]EN[3Pal][Sar]-NH2; lactam N-8) | ≥ 1140 | 220 (≈ 135 µM) | 10 (≈ 6.13 µM) | 0.32 |
| Cc1cccc2c(C[C@@H]3NC(=O)CCCCCCCCCCC(=O)NCCCC[C@@H](C(=O)N[C@@H](CC(N)=O)C(=O)N[C@@H](Cc4cccnc4)C(=O)N(C)CC(N)=O)NC(=O)C(C)(C)NC(=O)[C@H](Cc4ccc5ccccc5c4)NC(=O)[C@H](Cc4ccc(OCCN(C)C)cc4)NC(=O)C4(CCOCC4)NC(=O)[C@H](CCC(N)=O)NC3=O)c[nH]c12 [compound 10] ([Trp(7-Me)]Q[Thp]Y(Me2NCH2CH2)[2Nal][Aib]KN[3Pal][Sar]-NH2; linker N-7 via C12 diacid) | ≥ 890 | 240 (≈ 146 µM) | 70 (≈ 42.6 µM) | 0.55 |
| Cc1cccc2c(C[C@@H]3NC(=O)CCCCCCCCCCCCCNC(=O)CC[C@@H](C(=O)N[C@@H](CC(N)=O)C(=O)N[C@@H](Cc4cccnc4)C(=O)N(C)CC(N)=O)NC(=O)C(C)(C)NC(=O)[C@H](Cc4ccc5ccccc5c4)NC(=O)[C@H](Cc4ccc(OCCN(C)C)cc4)NC(=O)C4(CCOCC4)NC(=O)[C@H](CCC(N)=O)NC3=O)c[nH]c12 [compound 1] ([X1][Trp(7-Me)]Q[Thp]Y(Me2NCH2CH2)[2Nal][Aib]EN[3Pal][Sar]-NH2; lactam N-8) | ≥ 920 | < 10 | < 10 | 0.3 |
| Cc1cccc2c(C[C@@H]3NC(=O)CCCCCCCNC(=O)CC[C@@H](C(=O)N[C@@H](CC(N)=O)C(=O)N[C@@H](Cc4cccnc4)C(=O)N(C)CC(N)=O)NC(=O)C(C)(C)NC(=O)[C@H](Cc4ccc5ccccc5c4)NC(=O)[C@H](Cc4ccc(OCCN(C)C)cc4)NC(=O)C4(CCOCC4)NC(=O)[C@H](CC(C)C)NC3=O)c[nH]c12 [compound 9] ([Aoc][Trp(7-Me)]L[Thp]Y(Me2NCH2CH2)[2Nal][Aib]EN[3Pal][Sar]-NH2; lactam N-8) | ≥ 1160 | 260 (≈ 167 µM) | 80 (≈ 51.3 µM) | 0.94 |
| CC(=O)NCCCC[C@@H]1NC(=O)[C@H](Cc2c[nH]c3c(C)cccc23)NC(=O)CCCCCN(C)CCCCN(C)CCCC[C@@H](C(=O)N[C@@H](CC(N)=O)C(=O)N[C@@H](Cc2cccnc2)C(=O)N(C)CC(N)=O)NC(=O)C(C)(C)NC(=O)[C@H](Cc2ccc3ccccc3c2)NC(=O)[C@H](Cc2ccc(OCCN(C)C)cc2)NC(=O)C2(CCOCC2)NC1=O [compound 18] ([Trp(7-Me)]K(Ac)[Thp]Y(Me2NCH2CH2)[2Nal][Aib][Lys(Me,(CH2)4NMe(CH2)5CO)]N[3Pal][Sar]-NH2; lactam N-7) | ≥ 1060 | ≥ 980 | ≥ 990 | 0.68 |
| Cc1cccc2c(C[C@@H]3NC(=O)COCCOCCOCCNC(=O)CC[C@@H](C(=O)N[C@@H](CC(N)=O)C(=O)N[C@@H](Cc4cccnc4)C(=O)N(C)CC(N)=O)NC(=O)C(C)(C)NC(=O)[C@H](Cc4ccc5ccccc5c4)NC(=O)[C@H](Cc4ccc(OCCN(C)C)cc4)NC(=O)C4(CCOCC4)NC(=O)[C@H](CCC(N)=O)NC3=O)c[nH]c12 [compound 14] ([AEEEA][Trp(7-Me)]Q[Thp]Y(Me2NCH2CH2)[2Nal][Aib]EN[3Pal][Sar]-NH2; lactam N-8) | ≥ 1200 | ≥ 1280 | ≥ 1270 | 0.46 |
| Cc1cccc2c(C[C@@H]3NC(=O)Cc4ccc(cc4)-c4ccc(cc4)CC(=O)NCCCC[C@@H](C(=O)N[C@@H](CC(N)=O)C(=O)N[C@@H](Cc4cccnc4)C(=O)N(C)CC(N)=O)NC(=O)C(C)(C)NC(=O)[C@H](Cc4ccc5ccccc5c4)NC(=O)[C@H](Cc4ccc(OCCN(C)C)cc4)NC(=O)C4(CCOCC4)NC(=O)[C@H](CCC(N)=O)NC3=O)c[nH]c12 [compound 15] ([Trp(7-Me)]Q[Thp]Y(Me2NCH2CH2)[2Nal][Aib]KN[3Pal][Sar]-NH2; linker N-7 via X2) | ≥ 990 | ≥ 920 | ≥ 920 | 0.63 |
